For six compounds, GI50 results are on record in patent US20260042754A1, “Substituted Bicyclic Heteroaryl Sulfonamide Derivatives for the Treatment of Cancer” (NODUS ONCOLOGY LIMITED, priority 2022, published 2026).

Like-named read-outs stand apart in the source and are kept apart here. Bounds are passed on as bounds.

The test system of assay [1] is RMUG-S mucinous cystadenocarcinoma ovarian cancer cell line. Kind of assay: Cell proliferation assay (CellTiter-Glo), RMUG-S, Examples 1-11. To be noted: Examples 1-11: 96-well, 5000 cells per well, 120 hours; highest concentration tested 9000 nM; read-out: RMUG-S GI50 (high PARG dependency). Type of assay: cell-based. The method, then:
(§1) For Examples 1-11, RMUG-S mucinous cystadenocarcinoma (JCRB, #IF050320) and TOV-112D endometrioid adenocarcinoma (ATCC, #CRL-11731) ovarian cancer cell lines were grown in DMEM/F-12 with glutamine (BioConcept, #1-26F09-I) and RPMI with glutamine (BioConcept, #1-41F03-1), respectively, and both media containing 10% FBS (Sigma-Aldrich, #F9665) and supplemented with 1% Penicillin-Streptomycin (BioConcept, #4-01F00-H) using standard cell culture techniques. RMUG-S and TOV-112D ovarian cancer cell lines were selected as highly PARG dependent and having low PARG dependency, respectively, based on their publically available PARG shRNA (short hairpin ribonucleic acid) dropout profiles in the Cancer Dependency Map (DepMap) data portal (Broad Institute DepMap Project; Cheung H W et al, Proceedings of the National Academy of Sciences 2011; Cowley G S et al, Scientific Data 2014; McDonald E R et al, Cell 2017). PARG dependency of these cell lines was independently verified and confirmed by genetic and pharmacological means using shRNA-mediated PARG depletion, and the previously reported cell-permeable quinazolinedione PARG inhibitor tool compound PDD00017273 (Pillay N et al, Cancer Cell 2019). Thus, growth inhibition of the RMUG-S cell line serves as a functional on-target inhibition readout, while observing potent growth inhibition of TOV-112D is indicative of compound off-target activity. Cells were seeded in 96-well plates with clear bottom (Huberlab, #7.655 090) at a seeding density of 5000 cells per well in 100 μL of medium, and the plates were incubated overnight at 37° C. with 5% CO2 prior to treatment with compounds. Experimental compounds were prepared in DMSO at a concentration of 10 mM. Compounds were distributed at the desired final concentrations using the Tecan D300e Digital Dispenser (TECAN) and normalized to the highest DMSO volume. The plates were incubated for 120 hours and cell numbers were then measured using CellTiter-Glo® (Promega, #G9241), essentially as recommended by the manufacturer. Briefly, for the CellTiter-Glo® proliferation readout, 50 μL of the reconstituted CellTiter-Glo® 2.0 Reagent were added to 100 μL of medium containing cells. The plates were incubated at room temperature for 10 minutes to stabilize the luminescent signal, and luminescence intensity signals were then measured with a Synergy 4™ microplate reader (BioTek Instruments). Relative proliferation values were calculated by normalizing the raw data using DMSO-treated cells (100% proliferation) and the signals obtained from cells that were evaluated at the time of compound addition (0% proliferation). The concentration-response data were fitted to a sigmoidal 4-parameter logistic model with the maximum constrained to 100%. GI50 values were calculated from the curves as the compound concentrations reducing proliferation to 50%.
Background: In ATP-based viability assays light output follows the ATP content of the culture.

The subject of assay [2] is TOV-112D endometrioid adenocarcinoma ovarian cancer cell line. Kind of assay: Cell proliferation assay (CellTiter-Glo), TOV-112D. Format: cell-based. The conditions noted are these: 96-well, 5000 cells per well, 120 hours, highest concentration tested 9000 nM, off-target readout, read-out: TOV-112D GI50 (low PARG dependency). The method, then: as §1

The term GI50 denotes the concentration that inhibits growth by half. As for `CO/N=c1\[nH]c2ccc(S(=O)(=O)NC3(C)COC3)cc2c(=O)n1Cc1cnn(C)c1` [Example 2, 2-methoxyimino-N-(3-methyloxetan-3-yl)-3-[(1-methylpyrazol-4-yl)methyl]-4-oxo-1H-quinazoline-6-sulfonamide], the GI50 is 2000 to 9000 nM in assay [1] and no less than 9000 nM in assay [2] (Homo sapiens, TOV112D).
For `CO/N=c1\[nH]c2ccc(S(=O)(=O)NC3(C)CC3)cc2c(=O)n1Cc1cnc(C)s1` [Example 1, 2-methoxyimino-N-(1-methylcyclopropyl)-3-[(2-methylthiazol-5-yl)methyl]-4-oxo-1H-quinazoline-6-sulfonamide], in that order: 500 to 2000 nM and no less than 9000 nM.
On to `CON=c1[nH]c2c(N3CCN(C(=O)C4(C)CC4)[C@H](C)C3)cc(S(=O)(=O)NC3(C)CC3)cc2c(=O)n1Cc1cnn(C)c1` [Example 8, 2-methoxyimino-N-(1-methylcyclopropyl)-3-[(1-methylpyrazol-4-yl)methyl]-4-oxo-8-[(3R)-3-methyl-4-(1-methylcyclopropanecarbonyl)piperazin-1-yl]-1H-quinazoline-6-sulfonamide], for which the GI50 is less than 500 nM in assay [1] and 500 to 2000 nM in assay [2].
As for `CO/N=c1\[nH]c2c(-c3ccc(C(=O)N(C)C)cc3)cc(S(=O)(=O)NC3(C)CC3)cc2c(=O)n1Cc1cnn(C)c1` [Example 5, 4-[2-methoxyimino-6-[(1-methylcyclopropyl)sulfamoyl]-3-[(1-methylpyrazol-4-yl)methyl]-4-oxo-1H-quinazolin-8-yl]-N,N-dimethyl-benzamide], the GI50 is 500 to 2000 nM in assay [1] and no less than 9000 nM in assay [2] (Homo sapiens, TOV112D).
For `Cc1nc(C)c(CO/N=c2\[nH]c3ccc(S(=O)(=O)NC4(C)CC4)cc3c(=O)n2Cc2cnn(C)c2)s1` [Example 3, 2-[(2,4-dimethylthiazol-5-yl)methoxyimino]-N-(1-methylcyclopropyl)-3-[(1-methylpyrazol-4-yl)methyl]-4-oxo-1H-quinazoline-6-sulfonamide], in that order: 2000 to 9000 nM and no less than 9000 nM.
For the compound `CO/N=c1\[nH]c2c(N3CCN[C@H](C)C3)cc(S(=O)(=O)NC3(C)CC3)cc2c(=O)n1Cc1cnn(C)c1` [Example 7, 2-methoxyimino-N-(1-methylcyclopropyl)-3-[(1-methylpyrazol-4-yl)methyl]-4-oxo-8-[(3R)-3-methylpiperazin-1-yl]-1H-quinazoline-6-sulfonamide], the GI50 in assay [1] was 500 to 2000 nM; in assay [2] (Homo sapiens, TOV112D) it was no less than 9000 nM.
